Data reported in publication PMC11289455 (Scientific Reports, 2024).
Like-named read-outs stand apart in the source and are kept apart here.

What was measured:
[1] = target: T1, AR (androgen receptor) (Homo sapiens, UniProt P10275, T878A); assay: SafetyScreen44: AR; format: binding
T1 construct: purchased Eurofins Cerep SafetyScreen44
T1 sequence (P10275 1-920 T878A): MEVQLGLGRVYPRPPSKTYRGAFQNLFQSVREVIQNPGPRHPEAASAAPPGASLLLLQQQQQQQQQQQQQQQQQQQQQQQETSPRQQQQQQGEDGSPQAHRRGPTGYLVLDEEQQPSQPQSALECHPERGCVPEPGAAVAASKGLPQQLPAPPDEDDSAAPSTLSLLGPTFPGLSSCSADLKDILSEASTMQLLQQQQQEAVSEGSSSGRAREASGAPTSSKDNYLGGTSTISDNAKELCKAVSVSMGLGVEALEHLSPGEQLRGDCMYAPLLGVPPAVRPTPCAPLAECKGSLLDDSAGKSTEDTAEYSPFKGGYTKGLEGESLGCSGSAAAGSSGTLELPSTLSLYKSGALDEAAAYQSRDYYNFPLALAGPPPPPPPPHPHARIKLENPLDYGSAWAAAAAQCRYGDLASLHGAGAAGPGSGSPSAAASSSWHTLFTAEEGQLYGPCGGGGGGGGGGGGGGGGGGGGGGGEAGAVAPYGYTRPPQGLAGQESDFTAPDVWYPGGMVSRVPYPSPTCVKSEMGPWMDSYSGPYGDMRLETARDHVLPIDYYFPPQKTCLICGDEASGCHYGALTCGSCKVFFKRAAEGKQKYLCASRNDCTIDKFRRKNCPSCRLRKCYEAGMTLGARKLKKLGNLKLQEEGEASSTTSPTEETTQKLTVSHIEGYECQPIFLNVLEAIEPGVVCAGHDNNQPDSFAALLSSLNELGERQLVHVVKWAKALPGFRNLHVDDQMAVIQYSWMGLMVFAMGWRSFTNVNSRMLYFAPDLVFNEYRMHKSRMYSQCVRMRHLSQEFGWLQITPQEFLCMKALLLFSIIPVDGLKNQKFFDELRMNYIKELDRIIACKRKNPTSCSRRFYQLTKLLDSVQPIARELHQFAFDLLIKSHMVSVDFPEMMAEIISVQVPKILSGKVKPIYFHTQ

[2] = target: T2, α2A (alpha-2A adrenergic receptor) (Homo sapiens, UniProt P08913); assay: SafetyScreen44: α2A; format: binding
T2 construct: purchased Eurofins Cerep SafetyScreen44
T2 sequence (P08913 1-465): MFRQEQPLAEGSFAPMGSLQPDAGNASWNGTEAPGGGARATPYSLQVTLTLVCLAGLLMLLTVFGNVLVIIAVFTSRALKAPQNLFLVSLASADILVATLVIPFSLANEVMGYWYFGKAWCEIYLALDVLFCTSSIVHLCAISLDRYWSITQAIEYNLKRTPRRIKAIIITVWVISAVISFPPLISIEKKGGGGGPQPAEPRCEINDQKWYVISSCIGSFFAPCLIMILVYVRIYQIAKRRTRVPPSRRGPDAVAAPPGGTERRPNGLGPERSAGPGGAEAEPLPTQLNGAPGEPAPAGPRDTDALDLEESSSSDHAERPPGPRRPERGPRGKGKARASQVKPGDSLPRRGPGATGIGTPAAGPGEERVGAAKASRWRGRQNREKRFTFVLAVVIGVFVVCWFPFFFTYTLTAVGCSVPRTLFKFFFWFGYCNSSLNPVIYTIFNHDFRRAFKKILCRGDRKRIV

[3] = target: T3, COX2 (Homo sapiens, UniProt P35354); assay: SafetyScreen44: COX2; format: biochemical
T3 construct: purchased Eurofins Cerep SafetyScreen44
T3 sequence (P35354 18-604): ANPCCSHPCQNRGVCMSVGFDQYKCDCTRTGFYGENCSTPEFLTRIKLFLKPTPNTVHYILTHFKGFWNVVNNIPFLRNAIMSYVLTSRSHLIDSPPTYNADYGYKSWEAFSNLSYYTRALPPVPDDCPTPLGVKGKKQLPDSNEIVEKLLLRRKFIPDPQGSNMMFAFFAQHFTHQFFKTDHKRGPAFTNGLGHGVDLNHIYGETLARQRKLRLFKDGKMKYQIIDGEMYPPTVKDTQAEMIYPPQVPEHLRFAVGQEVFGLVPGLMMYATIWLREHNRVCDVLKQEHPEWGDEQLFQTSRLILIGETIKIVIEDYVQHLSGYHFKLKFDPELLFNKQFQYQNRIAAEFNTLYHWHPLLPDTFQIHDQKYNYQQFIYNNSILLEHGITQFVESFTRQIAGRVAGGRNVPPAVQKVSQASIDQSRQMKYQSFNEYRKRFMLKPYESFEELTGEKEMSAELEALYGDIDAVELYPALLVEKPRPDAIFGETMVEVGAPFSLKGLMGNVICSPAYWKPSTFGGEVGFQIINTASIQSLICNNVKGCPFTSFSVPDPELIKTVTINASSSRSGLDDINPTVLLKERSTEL

[4] = target: T4, μ (MOP) (mu opioid receptor) (Homo sapiens, UniProt P35372); assay: SafetyScreen44: μ (MOP); format: binding
T4 construct: purchased Eurofins Cerep SafetyScreen44
T4 sequence (P35372 whole entry): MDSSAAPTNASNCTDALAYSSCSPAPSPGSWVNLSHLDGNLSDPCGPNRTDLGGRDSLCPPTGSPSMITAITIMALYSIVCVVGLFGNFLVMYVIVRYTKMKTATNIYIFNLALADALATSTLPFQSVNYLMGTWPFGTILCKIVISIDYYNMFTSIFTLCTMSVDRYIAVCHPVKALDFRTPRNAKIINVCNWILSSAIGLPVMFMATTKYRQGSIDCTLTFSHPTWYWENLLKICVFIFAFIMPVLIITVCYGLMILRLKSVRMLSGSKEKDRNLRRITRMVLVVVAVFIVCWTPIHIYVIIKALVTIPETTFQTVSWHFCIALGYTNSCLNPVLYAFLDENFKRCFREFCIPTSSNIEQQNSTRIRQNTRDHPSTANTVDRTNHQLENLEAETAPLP

[5] = target: T5, N neuronal α4β2 (neuronal alpha-4-beta-2 nicotinic acetylcholine receptor) (Homo sapiens, UniProt P17787+P43681); assay: SafetyScreen44: N neuronal α4β2; format: binding
T5 construct: purchased Eurofins Cerep SafetyScreen44
T5 sequence (P43681 29-627 limits assumed): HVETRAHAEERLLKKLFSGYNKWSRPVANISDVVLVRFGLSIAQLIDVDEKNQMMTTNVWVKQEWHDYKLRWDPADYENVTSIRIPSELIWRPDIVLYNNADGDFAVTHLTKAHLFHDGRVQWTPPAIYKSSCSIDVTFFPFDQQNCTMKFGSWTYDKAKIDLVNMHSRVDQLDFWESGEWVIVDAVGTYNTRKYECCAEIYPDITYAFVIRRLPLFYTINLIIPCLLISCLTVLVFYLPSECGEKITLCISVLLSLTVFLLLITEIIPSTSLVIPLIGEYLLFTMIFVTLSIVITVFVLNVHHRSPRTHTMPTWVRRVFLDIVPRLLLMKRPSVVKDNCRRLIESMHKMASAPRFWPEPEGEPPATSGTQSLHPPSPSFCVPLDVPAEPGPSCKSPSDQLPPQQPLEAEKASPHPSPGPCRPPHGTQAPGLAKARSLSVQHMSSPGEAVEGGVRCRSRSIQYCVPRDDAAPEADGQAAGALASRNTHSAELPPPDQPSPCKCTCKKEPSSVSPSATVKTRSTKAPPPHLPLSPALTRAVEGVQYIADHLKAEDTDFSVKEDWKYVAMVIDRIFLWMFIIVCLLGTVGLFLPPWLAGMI
T5 sequence (P17787 26-502): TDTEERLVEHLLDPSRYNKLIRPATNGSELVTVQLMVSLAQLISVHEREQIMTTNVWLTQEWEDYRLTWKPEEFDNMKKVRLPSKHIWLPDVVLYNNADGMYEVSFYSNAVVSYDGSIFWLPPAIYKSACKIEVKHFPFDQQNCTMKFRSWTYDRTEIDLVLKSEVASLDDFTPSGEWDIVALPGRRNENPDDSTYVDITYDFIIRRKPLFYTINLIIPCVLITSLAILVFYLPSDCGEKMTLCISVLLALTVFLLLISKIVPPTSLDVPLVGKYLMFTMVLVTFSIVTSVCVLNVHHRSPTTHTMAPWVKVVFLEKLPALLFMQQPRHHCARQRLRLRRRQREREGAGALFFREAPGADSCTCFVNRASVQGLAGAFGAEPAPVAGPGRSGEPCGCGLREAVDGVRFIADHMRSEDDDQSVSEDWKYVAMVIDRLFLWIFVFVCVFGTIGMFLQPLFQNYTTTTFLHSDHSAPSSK

[6] = target: T6, CB1 (cannabinoid receptor type 1) (Homo sapiens, UniProt P21554); assay: SafetyScreen44: CB1; format: binding
T6 construct: purchased Eurofins Cerep SafetyScreen44
T6 sequence (P21554 whole entry): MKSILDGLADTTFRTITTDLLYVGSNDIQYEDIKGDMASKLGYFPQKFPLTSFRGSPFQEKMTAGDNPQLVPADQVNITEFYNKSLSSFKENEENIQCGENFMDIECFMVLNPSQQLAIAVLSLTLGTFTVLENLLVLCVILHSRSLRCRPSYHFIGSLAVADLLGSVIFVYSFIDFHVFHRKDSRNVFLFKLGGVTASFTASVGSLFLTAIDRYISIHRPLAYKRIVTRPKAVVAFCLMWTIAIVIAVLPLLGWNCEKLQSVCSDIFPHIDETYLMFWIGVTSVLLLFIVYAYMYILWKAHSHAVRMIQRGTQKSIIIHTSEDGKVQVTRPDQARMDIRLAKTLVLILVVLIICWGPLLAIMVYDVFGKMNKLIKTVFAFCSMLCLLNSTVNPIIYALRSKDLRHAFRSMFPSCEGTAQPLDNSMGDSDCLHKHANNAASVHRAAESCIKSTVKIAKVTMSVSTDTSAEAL

**Q.** Which results are given for `CC(=O)NCCCC[C@@H]1NC(=O)[C@H](Cc2c[nH]c3c(C)cccc23)NC(=O)[C@H]([C@@H](C)O)NC(=O)[C@H](CC(N)=O)NC(=O)[C@@H](NC(C)=O)C(C)(C)SSC(C)(C)[C@@H](C(=O)N[C@@H](Cc2ccc(OCCN)cc2)C(=O)N[C@@H](Cc2ccc3ccccc3c2)C(=O)NC2(C(=O)N[C@@H](CCC(=O)O)C(=O)N[C@@H](CC(N)=O)C(=O)N[C@@H](Cc3cccnc3)C(=O)N(C)CC(N)=O)CCOCC2)NC1=O` [JNJ-77242113, S^3,1,S^3,6-cyclo[N-acetyl-3-sulfanyl-L-valyl-L-asparaginyl-L-threonyl-7-methyl-L-tryptophyl-N^6-acetyl-L-lysyl-3-sulfanyl-L-valyl-O-(2-aminoethyl)-L-tyrosyl-3-(naphthalen-2-yl)-L-alanyl-4-aminooxan-4-carbonyl-L-α-glutamyl-L-asparaginyl-3-(pyridin-3-yl)-L-alanyl-N^2-methylglycinamide]]?
**A.** inhibition at 10 µM ([1]; 1st run, read-out: Percent inhibition of control ligand binding, AR, 1st run): -5.6%; inhibition at 10 µM ([1]; 2nd run, read-out: Percent inhibition of control ligand binding, AR, 2nd run): -3.7%; inhibition at 10 µM ([1]; mean of 2 runs, read-out: Percent inhibition of control ligand binding, AR, Mean): -4.7%; inhibition at 10 µM ([2]; 1st run, read-out: Percent inhibition of control ligand binding, α2A, 1st run): 0.4%; inhibition at 10 µM ([2]; 2nd run, read-out: Percent inhibition of control ligand binding, α2A, 2nd run): -2.6%; inhibition at 10 µM ([2]; mean of 2 runs, read-out: Percent inhibition of control ligand binding, α2A, Mean): -1.1%; inhibition at 10 µM ([3]; 1st run, read-out: Percent inhibition of control ligand binding, COX2, 1st run): 7.8%; inhibition at 10 µM ([3]; 2nd run, read-out: Percent inhibition of control ligand binding, COX2, 2nd run): -0.9%; inhibition at 10 µM ([3]; mean of 2 runs, read-out: Percent inhibition of control ligand binding, COX2, Mean): 3.4%; inhibition at 10 µM ([4]; 1st run, read-out: Percent inhibition of control ligand binding, μ (MOP), 1st run): 5.1%; inhibition at 10 µM ([4]; 2nd run, read-out: Percent inhibition of control ligand binding, μ (MOP), 2nd run): -4.8%; inhibition at 10 µM ([4]; mean of 2 runs, read-out: Percent inhibition of control ligand binding, μ (MOP), Mean): 0.1%; inhibition at 10 µM ([5]; 1st run, read-out: Percent inhibition of control ligand binding, N neuronal α4β2, 1st run): -10.4%; inhibition at 10 µM ([5]; 2nd run, read-out: Percent inhibition of control ligand binding, N neuronal α4β2, 2nd run): -7.5%; inhibition at 10 µM ([5]; mean of 2 runs, read-out: Percent inhibition of control ligand binding, N neuronal α4β2, Mean): -8.9%; inhibition at 10 µM ([6]; 1st run, read-out: Percent inhibition of control ligand binding, CB1, 1st run): 2.5%; inhibition at 10 µM ([6]; 2nd run, read-out: Percent inhibition of control ligand binding, CB1, 2nd run): -6.9%; inhibition at 10 µM ([6]; mean of 2 runs, read-out: Percent inhibition of control ligand binding, CB1, Mean): -2.2%
